Results reported in EP1060182B1, “NOVEL PRODRUGS FOR PHOSPHORUS-CONTAINING COMPOUNDS” (Metabasis Therapeutics, Inc., priority 1998, dated 1999).
Entries after “also recorded” stand apart in the source; their conditions may differ. Blank lines part the entries; values can stand above or below the compound they belong to.

Key:
[1] = in rodents; cited from earlier work
[2] = Stability in plasma (Example C); format: in vitro ADME, rat; details: 37°C, 5-8 hours, reverse phase HPLC
Method: Methods: Compounds were incubated in plasma at 37°C, and aliqouts removed at appropriate time points over the course of 5-8 hours. The aliquots were extracted with 1.5 volumes of methanol and clarified by centrifugation. Supernatants were then evaporated to dryness and the residues reconstituted with 100 µL of isotonic saline and then analyzed by reverse phase HPLC.

[3] = test system: glucose production in isolated rat hepatocytes; assay: Inhibition of glucose production in rat hepatocytes (Example J); format: cell-based; details: 1 hour, lactate 10 mM / pyruvate 1 mM
Experimental: Select prodrugs of FBPase inhibitors were tested for inhibition of glucose production in isolated rat hepatocytes.
After a 10 minute equilibration period, lactate and pyruvate were added to 10 mM and 1 mM concentrations, respectively. Addition of gluconeogenic substrates was immediately followed by that of appropriate concentrations of test compound. After 1 hour, an aliquot (0.25 ml) was removed, transferred to an Eppendorf tube and centrifuged. The supernatant (50 µl) was then assayed for glucose content using a Glucose Oxidase kit (Sigma Chemical Co.) as per the manufacturer's instructions.

[4] = test system: Rat liver microsomes; details: linear over a 5 hour reaction period, equimolar products
Experimental: 1.1 was evaluated for microsome-catalyzed conversion to parent compound 2-{5-[9-(2-Phenylethyl)-8-adeninyl]} furanylphosphonic acid and phenol, an expected byproduct of the reaction.
Methods: Rat liver microsomes were prepared as described in Example I. Reaction conditions, sample processing, and HPLC analysis were as described in Example D. Phenol was identified by HPLC by its retention time and spectral characteristics relative to an authentic standard.

[5] = test system: isolated rat hepatocytes; assay: Activation to parent compound in isolated rat hepatocytes (Example I); format: cell-based; details: 100 µM prodrug, peak within 15 minutes of addition
Text: An ODS column was used for analysis. […] Detection was at 310 nm.

[6] = test system: microsomal fraction of human liver; assay: Activation by human liver microsomes (Example E); format: in vitro ADME; details: 250 µM prodrug, 37°C, NADPH-generating system
Experimental: 7.1, 1.3, and 30.1 were tested for conversion to their respective parent compounds by the microsomal fraction of human liver.

[7] = test system: microsomal fraction of rat liver; assay: Activation by rat liver microsomes (Example D); format: in vitro ADME; details: 100 µM 7.1, 37°C; in the presence, but not in the absence of, NADP+; rate linearly dependent on microsomal protein
Experimental: The pellet was resuspended in homogenization buffer and recentrifuged.
Reactions were carried out at 37°C.
Reactions are monitored spectrophotometrically at 340 nm.

[8] = test system: recombinant CYP3A4; assay: Activation by recombinant CYP3A4 (Example G); format: in vitro ADME; details: 28.4 at 100 µM, 37°C, NADPH dependent, linear for 30 minutes
Experimental: Activation of 30.1 and 28.4 was evaluated in reactions containing microsomes from baculovirus-infected insect cells co-expressing recombinant CYP3A4 and cytochrome p450 reductase (Panvera Corp., Madison, WI).
Methods: Reaction mixture composition was similar to that described in Example E. Reactions were terminated by addition of methanol to a final concentration of 60%, and products typically analyzed by HPLC with use of a YMC reverse phase C8 column (250 x 4.6 mm). […] The effluent was monitored at 254 nm.

[9] = Hepatic PMEA-diphosphate and plasma PMEA after intravenous dosing (Example P); format: in vivo, rat; details: 10 mg/kg PMEA equivalents i.v.
[10] = test system: isolated rat hepatocytes; assay: Active drug metabolites formed after prodrug activation in isolated rat hepatocytes (Example K); details: for Product concentration nmoles/g cells (PMEApp): time point 4h
Method: Methods: Hepatocytes were prepared and incubated as described in Example I. 28.4 and 30.1 and their respective parent compounds, PMEA and ara-AMP, were dissolved in DMSO or methanol to yield 10 mM stock solutions, and then diluted into the cell suspension to yield a final concentration of 100 µM. At appropriate time points over the course of 2-4 hours, aliquots of the cell suspension were removed and spun through a silicon/mineral oil layer into 10% perchloric acid. The cell extracts in the acid layers were neutralized by the addition of 0.3 volumes of 3M KOH/3M KHCO3, and the extract was then centrifuged, filtered (0.2 micron filter) and loaded onto an anion exchange HPLC column equilibrated with 70% A (10 mM ammonium phosphate pH 3.5, 6% ETOH) and 30% B (1 M ammonium phosphate pH 3.5, 6% ETOH). Ara-ATP and PMEApp were eluted with a gradient to 80% B. Detection was at 254 nm.

[11] = i.v., over 2.5 minutes; cited from earlier work
[12] = intravenous administration to human patients; cited from earlier work
[13] = Liver ara-ATP and plasma/urine ara-hypoxanthine after intravenous dosing (Example O); format: in vivo, rat
Experimental: The temporal profile of ara-hypoxanthine and ara-ATP generation following intravenous administration of 30.1 and free ara-AMP was compared in the rat.
Method: 30.1 and ara-AMP (Sigma) were administered to normal, fasted rats intravenously (in saline) via tail vein catheters. At appropriate time points following drug a administration, animals were lightly anesthetized with halothane. The peritoneal cavity was then opened and a blood sample was obtained from the abdominal vena cava and the liver freeze-clamped and excised.
The blood samples were heparinized and plasma was prepared. Plasma samples (100 µL) were mixed with 4 N perchloric acid (40 µL), vortexed, and then clarified by centrifugation. The supernatants were analyzed for ara-hypoxanthine by HPLC with use of a Beckman Ultrasphere ODS column (4.6 x 150 mm). The column was eluted with 100 mM acetic acid at a flow rate of 1.0 mL/min. The eluent was monitored by UV absorbance at 254 nm.
Livers were immediately homogenized in 3 volumes of 10% perchloric acid (w/w), and the extracts clarified by centrifugation at 2500 x g (5 minutes). The resulting supernatants were removed and neutralized with 0.3 volumes of 3M KOH/ 3M KHCO3. The neutralized liver extracts were then spun in an Eppendorf microfuge at 10,000 rpm (20 minutes, 4°C). The supernatants were analyzed for ara-ATP content by reverse phase HPLC (HP1050) using a Whatman Partisphere SA column (4.6 x 125 mm). A gradient from 0.3M ammonium phosphate buffer pH 3.5 to 0.8M ammonium phosphate pH 3.5 was run (1 ml/minute flow rate).
Renal excretion of araH following i.v. administration of 30.1 or ara-AMP was determined as described in Example Q.

Structure (SMILES): CC(C)(C)C(=O)OCOP(=O)(OCOC(=O)C(C)(C)C)C(CCCc1cccc(Oc2ccccc2)c1)S(=O)(=O)O (centres unmarked) [BMS 188494]
oral bioavailability [1]: < 2%

Structure (SMILES): Nc1ncnc2c1nc(-c1ccc(P3(=O)OC4CC(O)CC(C4)O3)o1)n2CCc1ccccc1 (centres unmarked) [Compound 1.1, 6-Amino-8-(5'-hydroxyl-1',3'-cyclohexyl)phosphonofuranyl-9-phenethyl purine]
metabolism / degradation in fresh rat plasma [2]: not degraded; also recorded: no evidence of metabolism | IC50 [3]: 77 µM | rate of generation of 2-{5-[9-(2-Phenylethyl)-8-adeninyl]}furanylphosphonic acid and phenol [4]: 15 pmoles /mg microsomal protein/minute

metabolism / degradation in fresh rat plasma [2]: not degraded
Structure (SMILES): CC(C)(C)Cn1c(-c2ccc(P3(=O)OC4CC(O)CC(C4)O3)o2)nc2c(N)ncnc21 (centres unmarked) [Compound 1.2, 6-Amino-8-(5'-hydroxyl-1',3'-cyclohexyl)phosphonofuranyl-9-neopentyl purine]

peak intrahepatocyte levels of 6-Chloro-1-isobutyl-2-(2-Phosphono-5-furanyl)benzimidazole [5]: approximately 700 nmoles/g cells | rate of formation of parent compound [6]: 0.85 nmoles/mg microsomal protein/minute | conversion to parent compound [7]: converted to parent compound
Structure (SMILES): CC(C)Cn1c(-c2ccc(P3(=O)OCC(CO)CO3)o2)nc2ccc(Cl)cc21 (centres unmarked) [Compound 7.1, 6-Chloro-1-isobutyl-2-{5-[2'-(hydroxymethyl)-propan-1',3'-yl]phosphono-2-furanyl}benzimidazole]
inhibition at 100 µM ([3]; Rattus norvegicus, Hepatocyte, read-out: % inhibition @ 100 µM, 100 µM): 65% | IC50 ([3]; Rattus norvegicus, Hepatocyte): 48 µM

Structure (SMILES): CC(=O)OCC1COP(=O)(c2ccc(-c3nc4c(N)ncnc4n3CC(C)(C)C)o2)OC1 (centres unmarked) [Compound 7.5, 6-Amino-9-neopentyl-8-{5-[2'-(acetoxymethyl)-propan-1',3'-yl]phosphono-2-furanyl}purine]
IC50 [3]: 13 µM

Structure (SMILES): Nc1ncnc2c1ncn2CCOCP1(=O)OCCC(c2ccncc2)O1 (centres unmarked) [Compound 28.4, 9-[2-(1-(4-Pyridyl)-1,3-propylphosphonomethoxy)ethyl]adenine]
rate of formation of PMEA [8]: 3.1 ± 0.1 nmoles/ min/ nmole CYP3A4 | PMEA-diphosphate in liver [9]: readily detectable levels | Plasma PMEA levels relative to bisPOM-PMEA [9]: greater than 10 fold lower | Product concentration nmoles/g cells (PMEApp) ([10]; Dose 100 µM): 169 nmoles/g cells

Structure (SMILES): Nc1ncnc2c1ncn2CCOCP(=O)(O)O [PMEA, 9-(2-phosphonylmethoxyethyl) adenine, reference compound]
Product concentration nmoles/g cells (PMEApp) ([10]; Dose 250 µM): 120 nmoles/g cells

Product concentration nmoles/g cells (ara-ATP) ([10]; Dose 100 µM, time point 2h): 212±0.6 nmoles/g cells | persistence of ara-hypoxanthine in plasma ([13]; ara-AMP i.v. at equivalent doses): 8 h | ara-hypoxanthine (araH) in plasma ([13]; i.v., 30.1 at 10 and 3 mg/kg, ara-AMP at equivalent doses): µmolar levels | plasma half-life of free ara-AMP relative to 30.1 ([13]; judged by inability to detect the compound in plasma): considerably shorter
Structure (SMILES): Nc1ncnc2c1ncn2[C@@H]1O[C@H](COP(=O)(O)O)[C@@H](O)[C@@H]1O [araAMP, reference compound]
drop of plasma ara-AMP levels [11]: greater than 90% | ara-AMP in plasma [12]: not detected in plasma

Structure (SMILES): CC(C)(C)C(=O)OCOP(=O)(COCCn1cnc2c(N)ncnc21)OCOC(=O)C(C)(C)C [bisPOM-PMEA, reference compound]
PMEA-diphosphate in liver [9]: readily detectable levels
